For series [1], the target named is T1, Far upstream element-binding protein 2 (Homo sapiens) (UniProt Q92945).
T1 sequence (whole entry): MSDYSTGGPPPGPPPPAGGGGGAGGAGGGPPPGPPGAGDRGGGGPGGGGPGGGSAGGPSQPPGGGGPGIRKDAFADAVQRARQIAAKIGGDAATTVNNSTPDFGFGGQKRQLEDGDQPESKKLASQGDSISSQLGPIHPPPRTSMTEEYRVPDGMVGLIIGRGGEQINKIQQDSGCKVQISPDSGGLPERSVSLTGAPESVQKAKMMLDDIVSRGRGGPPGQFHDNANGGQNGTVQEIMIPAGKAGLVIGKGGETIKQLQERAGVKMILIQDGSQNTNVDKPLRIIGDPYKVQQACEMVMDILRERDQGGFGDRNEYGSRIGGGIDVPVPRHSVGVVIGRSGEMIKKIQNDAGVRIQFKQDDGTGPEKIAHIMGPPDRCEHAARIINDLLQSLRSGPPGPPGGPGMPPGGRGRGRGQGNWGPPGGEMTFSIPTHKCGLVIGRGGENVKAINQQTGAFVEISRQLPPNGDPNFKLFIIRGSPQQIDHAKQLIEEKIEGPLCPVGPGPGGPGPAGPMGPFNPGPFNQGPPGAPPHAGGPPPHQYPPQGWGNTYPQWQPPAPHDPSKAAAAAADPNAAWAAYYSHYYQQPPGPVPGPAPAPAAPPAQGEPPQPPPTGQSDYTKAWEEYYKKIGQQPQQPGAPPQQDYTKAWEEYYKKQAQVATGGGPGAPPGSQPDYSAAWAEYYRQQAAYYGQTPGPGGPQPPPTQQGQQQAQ
The experiment in a line: Binding affinity to recombinant full-length KSRP (unknown origin) by SPR analysis.

Series [2] relates to MDA-MB-231. The experiment in a line: Inhibition of colony formation in human MDA-MB-231 cells assessed as reduction in colony count incubated for 2 weeks by crystal violet staining based analysis. The class given is functional, cell-based.
The test system of series [3] is MCF7. Kind of series: Antitumor activity against human MCF7 cells xenografted in BALB/C-nu/nu mouse model assessed as decrease in tumor weight at 20 mg/kg, iv administered every other day for 15 days relative to control. In kind it is functional. Set-up: scale not given: the % may be the effect or the level left. To be noted: time 15 day. In general terms: In xenograft studies the graft and the host belong to different species.

Series [4] concerns MCF7. Kind of series: Induction of DNA double-strand breaks in human MCF7 cells assessed as increase in gamma-H2AX expression incubated for 24 hrs by Western blotting. The class given is functional, cell-based. On the technique in general: Immunoblotting shows a protein as a band on a membrane.
Series [5] is described as follows: Toxicity in BALB/C-nu/nu mouse xenografted with human MCF7 cells assessed as histopathological lesions in kidney at 20 to 30 mg/kg, iv administered every other day for 15 days by H and E staining based analysis. In kind it is organism-based. The following applies: in vivo, 360 h, dose 20-30 mg/kg, time 15 day.
Series [6] in a line: Toxicity in BALB/C-nu/nu mouse xenografted with human MCF7 cells assessed as histopathological lesions in liver at 20 to 30 mg/kg, iv administered every other day for 15 days by H and E staining based analysis. In kind it is organism-based. To be noted: in vivo, 360 h, dose 20-30 mg/kg, time 15 day.
Series [7] concerns 4T1. The experiment in a line: Antiproliferative activity against mouse 4T1 cells assessed as reduction in cell viability incubated for 2 days by MTT assay. In kind it is functional, cell-based. To be noted: 4T1, 48 h.
The subject of series [8] is MCF7. Kind of series: Induction of cell cycle arrest in human MCF7 cells assessed as increase in sub-G1 phase cells at 5 uM incubated for 24 hrs by PI staining based flow cytometric analysis. In kind it is functional. (Flow cytometry measures light scatter and fluorescence of single cells or particles in a stream.)
Series [9] concerns MCF7. Kind of series: Antitumor activity against human MCF7 cells xenografted in BALB/C-nu/nu mouse model assessed as decrease in tumor weight at 30 mg/kg, iv administered every other day for 15 days relative to control. The class given is functional. Set-up: scale not given: the % may be the effect or the level left. The following applies: time 15 day.
Series [10] deals with MCF7. Kind of series: Induction of cell cycle arrest in human MCF7 cells assessed as accumulation of cells at G2/M phase cells at 5 uM incubated for 24 hrs by PI staining based flow cytometric analysis (reference value: 10.2 %). In kind it is functional.
Series [11] deals with MCF7. Kind of series: Induction of ROS accumulation in human MCF7 cells assessed as increase in green fluorescence at 5 uM incubated for 24 hrs by DCFH-DA staining based automated microscopic immunofluorescence analysis. In kind it is functional, cell-based.
Series [12] concerns MDA-MB-231. The experiment in a line: Inhibition of cell migration in human MDA-MB-231 cells assessed as reduction in wound healing index measured after 72 hrs by scratch assay. The class given is functional, cell-based.
For series [13], the system named is MCF7. Kind of series: Induction of apoptosis in human MCF7 cells assessed as necrotic cells at 0.62 uM incubated for 48 hrs by Annexin V-FITC/PI staining based flow cytometric analysis (reference value: 1.16 %). In kind it is functional.
For series [14], the system named is KB. The experiment in a line: Antiproliferative activity against human KB cells assessed as reduction in cell viability incubated for 2 days by MTT assay. In kind it is functional, cell-based. The following applies: 48 h.
Series [15] can be described thus: Toxicity in BALB/C-nu/nu mouse xenografted with human MCF7 cells assessed as reduction in body weight at 30 mg/kg, iv administered every other day for 15 days relative to control. Also noted: scale not given: the % may be the effect or the level left. The following applies: in vivo, 360 h, time 15 day. In kind it is organism-based.
The test system of series [16] is U-87 MG. The experiment in a line: Antiproliferative activity against human U-87 MG cells assessed as reduction in cell viability incubated for 2 days by MTT assay. The class given is functional, cell-based, U-87MG ATCC. To be noted: 48 h.
Series [17] has as its system MCF7. The experiment in a line: Induction of apoptosis in human MCF7 cells assessed as late apoptotic cells at 2.5 uM incubated for 48 hrs by Annexin V-FITC/PI staining based flow cytometric analysis (reference value: 5.31 %). The class given is functional.
In series [18] the test system is MDA-MB-231. The experiment in a line: Antiproliferative activity against human MDA-MB-231 cells assessed as reduction in cell viability incubated for 2 days by MTT assay. The class given is functional, cell-based. To be noted: MDA-MB-231, 48 h.
Series [19] concerns MCF7. The experiment in a line: Antitumor activity against human MCF7 cells xenografted in BALB/C-nu/nu mouse model assessed as decrease in tumor growth at 20 to 30 mg/kg, iv administered every other day for 15 days. To be noted: dose 20-30 mg/kg, time 15.0 day. The class given is functional, organism-based.
Series [20] in a line: Acute toxicity in BALB/c nu/nu mouse assessed as survival rate at 100 mg/kg, ip administered for 7 days relative to control. The class given is organism-based. The following applies: in vivo, time 7 day.
The test system of series [21] is MCF7. Kind of series: Antitumor activity against human MCF7 cells xenografted in BALB/C-nu/nu mouse model assessed as increase in gamma-H2AX expression at 20 to 30 mg/kg, iv administered every other day for 15 days by immunohistochemical analysis. In kind it is functional, organism-based. The following applies: dose 20-30 mg/kg, time 15.0 day.
The test system of series [22] is MCF7. The experiment in a line: Antitumor activity against human MCF7 cells xenografted in BALB/C-nu/nu mouse model assessed as decrease in tumor volume at 30 mg/kg, iv administered every other day for 15 days relative to control. In kind it is functional. Also noted: scale not given: the % may be the effect or the level left. The following applies: time 15 day.

The pIC50 is the negative decadic logarithm of the IC50, by convention in mol/L.

pIC50: −log10 of the molar value. The source made the active and inactive calls. No cut-off for these calls is given here.

For the molecule `CN(CCO)S(=O)(=O)c1ccc(-n2ncc(Cl)c(Cl)c2=O)cc1`, the Activity entry in series [1] is “Dose-Dependent Effect”; in series [3], 44.6%; in series [4], “Dose-Dependent Effect”; in series [5], “Non-Toxic”; in series [6], “Non-Toxic”; in series [9], 74.2%. Further, the Activity in series [10] came to 19.9%; in series [13], 1.3%; in series [15], 20%; in [17], 31%; in series [22], 61.6%. Also, the inhibition result in series [2] and in [12] was “Active” in each case. The pIC50 in series [7] is 5.91; in series [14], 6.42; in series [16] it was 6.40; in series [18], 5.08. Besides, the outcome in series [8], in series [11], in series [19] and in series [21] was Active. In addition, in [20], the survival at 168 h worked out at 80%.
